Measurements reported in patent publication EP4624465A1, “COMPOUND SERVING AS DDR1 KINASE INHIBITOR, AND MEDICINE” (Nippon Shinyaku Co., Ltd., priority 2022, dated 2024).
Where a name gives a salt, the structure may show the parent alone.

How the values were obtained:
DDR1 kinase [1] = biological target: T1, DDR1 kinase (Homo sapiens, UniProt Q08345); assay: Evaluation of DDR1 kinase inhibition in DDR1-expressing U2OS cells (type I collagen stimulation, PathHunter detection); format: cell-based; parameters: host or cells: U2OS; details: type I collagen 50 µg/mL stimulation, duplicate, read-out: DDR-1 IC50
Target sequence in this assay (Q08345 19-913): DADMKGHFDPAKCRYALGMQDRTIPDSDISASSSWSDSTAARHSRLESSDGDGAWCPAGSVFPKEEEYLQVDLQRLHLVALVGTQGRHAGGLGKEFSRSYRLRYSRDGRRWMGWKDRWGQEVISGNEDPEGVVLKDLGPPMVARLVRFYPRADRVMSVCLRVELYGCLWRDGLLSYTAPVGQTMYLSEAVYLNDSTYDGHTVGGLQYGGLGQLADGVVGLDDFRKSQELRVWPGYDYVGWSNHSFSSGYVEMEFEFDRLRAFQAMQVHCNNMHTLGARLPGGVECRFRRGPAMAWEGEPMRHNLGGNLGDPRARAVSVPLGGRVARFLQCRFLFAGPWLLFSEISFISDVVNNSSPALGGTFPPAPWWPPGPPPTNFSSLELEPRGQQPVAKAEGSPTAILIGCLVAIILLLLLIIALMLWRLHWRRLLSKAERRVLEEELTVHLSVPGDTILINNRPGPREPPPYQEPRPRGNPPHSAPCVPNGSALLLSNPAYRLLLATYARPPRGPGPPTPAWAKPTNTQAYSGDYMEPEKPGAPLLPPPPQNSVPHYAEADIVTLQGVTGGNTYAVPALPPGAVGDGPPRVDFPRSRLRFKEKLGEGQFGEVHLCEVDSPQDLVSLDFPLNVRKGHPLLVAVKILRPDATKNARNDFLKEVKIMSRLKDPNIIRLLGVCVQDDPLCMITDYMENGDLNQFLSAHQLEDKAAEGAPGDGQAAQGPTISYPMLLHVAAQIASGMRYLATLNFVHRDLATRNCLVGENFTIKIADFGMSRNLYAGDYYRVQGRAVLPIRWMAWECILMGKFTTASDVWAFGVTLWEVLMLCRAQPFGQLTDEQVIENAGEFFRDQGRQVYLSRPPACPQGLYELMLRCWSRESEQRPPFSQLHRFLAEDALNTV

DDR1 kinase [2] = biological target: T1, DDR1 kinase; assay: Evaluation of DDR1 kinase inhibition (LANCE Ultra TR-FRET kinase assay); format: biochemical; parameters: purchased Carna Biosciences 08-113; details: DDR1 protein 0.5 nM, LANCE Ultra ULight-poly GAT substrate, 2 hours at room temperature, duplicate; read-out: DDR-1 IC50
Target sequence in this assay (Q08345 19-876 isoform Q08345-2 limits assumed): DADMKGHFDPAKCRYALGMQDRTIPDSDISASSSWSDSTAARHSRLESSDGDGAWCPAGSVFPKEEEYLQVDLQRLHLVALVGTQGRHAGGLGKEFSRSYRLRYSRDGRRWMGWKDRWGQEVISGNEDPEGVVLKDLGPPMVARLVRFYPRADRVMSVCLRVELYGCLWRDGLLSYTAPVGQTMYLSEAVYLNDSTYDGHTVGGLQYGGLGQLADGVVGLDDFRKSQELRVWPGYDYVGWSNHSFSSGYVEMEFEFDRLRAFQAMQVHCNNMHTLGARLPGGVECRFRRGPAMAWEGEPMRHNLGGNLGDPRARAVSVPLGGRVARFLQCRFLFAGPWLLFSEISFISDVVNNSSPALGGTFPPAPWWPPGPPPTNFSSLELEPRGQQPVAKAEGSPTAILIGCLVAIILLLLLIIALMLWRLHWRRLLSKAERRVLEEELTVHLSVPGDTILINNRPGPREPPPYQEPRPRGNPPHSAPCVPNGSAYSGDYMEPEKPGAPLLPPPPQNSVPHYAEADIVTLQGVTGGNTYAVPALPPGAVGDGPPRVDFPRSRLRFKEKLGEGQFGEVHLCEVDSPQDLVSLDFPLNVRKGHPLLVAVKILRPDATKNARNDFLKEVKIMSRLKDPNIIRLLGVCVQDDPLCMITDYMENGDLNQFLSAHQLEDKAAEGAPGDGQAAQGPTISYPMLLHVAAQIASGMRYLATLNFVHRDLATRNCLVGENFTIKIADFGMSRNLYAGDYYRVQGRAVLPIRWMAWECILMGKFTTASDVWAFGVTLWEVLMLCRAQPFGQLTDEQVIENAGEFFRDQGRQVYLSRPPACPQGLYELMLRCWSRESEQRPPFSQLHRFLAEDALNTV

IC50 (DDR1 kinase [1]) [nM]	IC50 (DDR1 kinase [2]) [nM]	Compound
200	8.5	O=C(c1ccnc(NC2CC2)c1)N1CC(c2nn(CC(=O)N3CCC[C@H]3C(F)(F)F)c3cc(F)cc(F)c23)C1 [Compound E-72, 2-(3-{1-[2-(cyclopropylamino)pyridine-4-carbonyl]azetidin-3-yl)-4,6-difluoro-1H-indazol-1-yl)-1-[(2S)-2-(trifluoromethyl)pyrrolidin-1 - yllethan-1-one hydrochloride]
120	4.8	N#C[C@@H]1CCCN1C(=O)Cn1nc(C2CN(C(=O)c3cc(N)ncc3F)C2)c2ccccc21 [Compound E-236]
180	62	CCNc1cc(C(=O)N2CC(c3nn(CC(=O)NCC(F)(F)F)c4cccc(Cl)c34)C2)ccn1 [Compound E-64, 2-(4-chloro-3-(1-[2-(ethylamino)pyridine-4-carbonyl]azetidin-3-yl}-1H-indazol-1-yl)-N-(2,2,2-trifluoroethyl)acetamide hydrochloride]
370	4.8	Nc1nccc(C(=O)N2CC(c3nn(CC(=O)N4CCO[C@@H](C(F)(F)F)C4)c4ccccc34)C2)c1F [Compound E-194, 2-{3-[1-(2-amino-3-fluoropyridine-4-carbonyl)azetidin-3-yl]-1H-indazol-1-y1}-1-[(2R)-2-(trifluoromethyl)morpholin-4-yl]ethan-1-one]
180	22	CN(C(=O)Cn1nc(C2CN(C(=O)c3cc(N)ncc3F)C2)c2ccccc21)C1CCOCC1 [Compound E-255, 2-{8-[1-(2-amino-5-fluoropyridine-4-carbonyl)azetidin-8-yl]-1H-indazol-1-yl}-N-methyl-N-(oxan-4-yl)acetamide]
3400	35	C[C@H]1CN(C(=O)Cn2nc(C3CN(C(=O)c4ccnc(N)c4)C3)c3c(F)cc(F)cc32)CCO1 [Compound E-79, 2-{3-[1-(2-aminopyridine-4-carbonyl)azetidin-3-yl]-4,6-difluoro-1H-indazol-1-yl}-1-[(2S)-2-methylmorpholin-4-yl]ethan-1-one hydrochloride]
480	7.7	Nc1cc(C(=O)N2CC(c3nn(CC(=O)N4CCO[C@@H](C(F)(F)F)C4)c4cccc(F)c34)C2)ccn1 [Compound E-95, 2-{3-[1-(2-aminopyridine-4-carbonyl)azetidin-3-yl]-4-fluoro-1H-indazol-1-yl}-1-[(2R)-2-(trifluoromethyl)morpholin-4-yl]ethan-1-one hydrochloride]
2300	0.3	C[C@@H]1CN(C(=O)Cn2nc(C3CN(C(=O)c4ccnc(N)c4)C3)c3c(F)cc(F)cc32)C[C@H](C)O1 [Compound E-84, 2-{3-[1-(2-aminopyridine-4-carbonyl)azetidin-3-yl)-4,6-difluoro-1H-indazol-1-yl}-1-[(2R,68)-2,6-dimethylmorpholin-4-yl]ethan-1-one]
2000	31	Nc1cc(C(=O)N2CC(c3nn(Cc4cn(Cc5ccccc5)nn4)c4cccc(F)c34)C2)ccn1 [Compound E-35, 4-(3-{1-[(1-benzyl-1H-1,2,3-triazol-4-yl)methyl]-4-fluoro-1H-indazol-3-yl}azetidine-1-carbonyl)pyridin-2-amine hydrochloride]
2600	50	Nc1cc(C(=O)N2CC(c3nn(Cc4cn(CC5CC5)nn4)c4cccc(F)c34)C2)ccn1 [Compound E-37, 4-[3-(1-{[1-(cyclopropylmethyl)-1H-1,2,3-triazol-4-yl]methyl}-4-fluoro-1H-indazol-3-yl)azetidine-1-carbonyl]pyridin-2-amine hydrochloride]
720	15	Nc1cc(C(=O)N2CC(c3nn(CC(=O)N4CCC[C@H]4C(F)(F)F)c4cc(F)cc(F)c34)C2)cnn1 [Compound E-16, 2-{3-[1-(6-aminopyridazine-4-carbonyl)azetidin-3-yl]-4,6-difluoro-1H-indazol-1-yl)-1-[(2S)-2-(trifluoromethyl)pyrrolidin-1-yl]ethan-1-one]
3	1.4	Nc1cc(C(=O)N2CC(c3nn(CC(=O)N4CCC[C@H]4C(F)F)c4ccccc34)C2)c(F)cn1 [Compound E-272, 2-{3-[1-(2-amino-5-fluoropyridine-4-carbonyl)azetidin-3-yl]-1H-indazol-1-yl}-1-[(2S)-2-(difluoromethyl)pyrrolidin-1-yl]ethan-1-one]
1300	100	Nc1cc(C(=O)N2CC(c3nn(CC(=O)N4CCCC4)c4cc(F)cc(F)c34)C2)ccn1 [Compound E-76, 2-{3-[1-(2-aminopyridine-4-carbonyl)azetidin-3-yl]-4,6-difluoro-1H-indazol-1-yl}-1-(pyrrolidin-1-yl)ethan-1-one]
96	7.4	Nc1cc(C(=O)N2CCC(c3nn(CC(=O)N4CCO[C@H](C(F)(F)F)C4)c4cccc(F)c34)CC2)ccn1 [Compound E-90, 2-{3-[1-(2-aminopyridine-4-carbonyl)piperidin-4-yl]-4-fluoro-1H-indazol-1-yl]-1-[(2S)-2-(trifluoromethyl)morpholin-4-yl]ethan-1-one]
380	13	Cc1cnc(N)cc1C(=O)N1CC(c2nn(CC(=O)N3CCC[C@H]3C(F)(F)F)c3cc(F)cc(F)c23)C1 [Compound E-78, 2-{3-[1-(2-amino-5-methylpyridine-4-carbonyl)azetidin-3-yl]-4,6-difluoro-1H-indazol-1-yl}-1-[(2S)-2-(trifluoromethyl)pyrrolidin-1-yl]ethan-1-one hydrochloride]
8	3.8	O=C(Cn1nc(C2CN(C(=O)c3ccnc(NC4CCC4)c3)C2)c2c(F)cccc21)NCC(F)(F)F [Compound E-68, 2-(3-{1-[2-(cyclobutylamino)pyridine-4-carbonyl]azetidin-3-yl}-4-fluoro-1H-indazol-1-yl)-N-(2,2,2-trifluoroethyl)acetamide hydrochloride]
1400	71	Nc1cc(C(=O)N2CC(c3nn(Cc4cn(CC5CCC5)nn4)c4cccc(F)c34)C2)ccn1 [Compound E-92, 4-[3-(1-{[1-(cyclobutylmethyl)-1H-1,2,3-triazol-4-yl]methyl}-4-fluoro-1H-indazol-3-yl)azetidine-1-carbonyl]pyridin-2-amine hydrochloride]
510	11	Nc1cc(C(=O)N2CC(c3nn(CC(=O)NC4CC4(F)F)c4ccccc34)C2)c(F)cn1 (stereo not shown) [Compound E-248, 2-{3-[1-(2-amino-5-fluoropyridine-4-carbonyl)azetidin-3-yl]-1H-indazol-1-yl}-N-(2,2-difluorocyclopropyl)acetamide]
270	21	O=C(c1cnc2ccccn12)N1CC(c2nn(CC(=O)N3CCC[C@H]3C(F)(F)F)c3cc(F)cc(F)c23)C1 [Compound E-101]
74	0.3	CC(C)[C@@H]1COCCN1C(=O)Cn1nc(C2CN(C(=O)c3ccnc(N)c3)C2)c2c(F)cc(F)cc21 [Compound E-83, 2-{3-[1-(2-aminopyridine-4-carbonyl)azetidin-3-yl]-4,6-difluoro-1H-indazol-1-yl]-1-[(3R)-3-(propan-2-yl)morpholin-4-yl]ethan-1-one]
